Reference: patent publication US12612386B2, “Heteroaryl-triazole compounds as pesticides” (Bayer Aktiengesellschaft, priority 2020, dated 2026)

Experiments:
Format in all cases: in vivo
[1] = tested on: adult mosquitoes Aedes aegypti strain MONHEIM; test: Aedes aegypti test (AEDSAE surface treatment & contact assay); details: 24 hours after contact, read-out: efficacy (mortality); for mortality at 4 mg/m2: surface concentration 4 mg/m^2, 30 min exposure; for mortality at 20 mg/m2: surface concentration 20 mg/m^2, 30 min exposure
Procedure, shortened: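 Compound in acetone containing 2000 ppm rapeseed oil methyl ester applied to a glazed tile and dried; adult mosquitoes exposed on the treated surface for 30 minutes. Percent mortality scored 24 hours after contact (100% = all dead, 0% = none dead).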

[2] = tested on: adult mosquitoes Culex quinquefasciatus strain P00; test: Culex quinquefasciatus test (CULXFA surface treatment & contact assay); details: 24 hours after contact, read-out: efficacy (mortality); for mortality at 4 mg/m2: surface concentration 4 mg/m^2, 30 min exposure; for mortality at 20 mg/m2: surface concentration 20 mg/m^2, 30 min exposure
Method: Culex quinquefasciatus Test (CULXFA Surface Treatment & Contact Assay)
(§1) Solvent: Aceton+2000 ppm rapeseed oil methyl ester (RME)
(§2) This solution is pipetted onto a glazed tile and after evaporation of the acetone, adult mosquitoes of the species Culex quinquefasciatus strain P00 are placed onto the dried surface. The exposure time is 30 minutes. Mortality in percent (%) is determined 24 hours after contact of the insects to the treated surface. 100% mortality means that all tested insects are dead, whereas 0% means that no insect died.

[3] = tested on: larvae of the southern green stink bug (Nezara viridula); test: whole plant or invertebrate; details: 96 h
Procedure, shortened: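 Compound in acetone/DMF was diluted in water with 1000 ppm alkylarylpolyglycol ether emulsifier. Barley plants were sprayed with it, then infested with Nezara viridula larvae. Mortality % was scored after 4 days (100% = all killed).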

[4] = tested on: adult flies Musca domestica strain WHO-N; test: Musca domestica test (MUSCDO surface treatment & contact assay); details: 24 hours after contact, read-out: efficacy (mortality); for mortality at 4 mg/m2: surface concentration 4 mg/m^2, 30 min exposure; for mortality at 20 mg/m2: surface concentration 20 mg/m^2, 30 min exposure
Method: Musca domestica Test (MUSCDO Surface Treatment & Contact Assay)
as §1
as §2, with “flies” for “mosquitoes”, “Musca domestica” for “Culex quinquefasciatus”, “WHO-N” for “P00”

[5] = tested on: brown planthopper (Nilaparvata lugens); test: Nilaparvata lugens spray test; details: 96 h
Procedure, shortened: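 Rice plants (Oryza sativa) sprayed with compound formulated in acetone/DMF with alkylarylpolyglycol ether emulsifier (1000 ppm in diluting water), then infested with planthoppers. Mortality (%) scored after 4 days; 100% = all insects killed, 0% = none killed.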

[6] = tested on: larvae of the banded cucumber beetle (Diabrotica balteata); test: Diabrotica balteata spray test; details: 168 h, 100 g/ha (=32 μg/well), after 7 days, read-out: efficacy (seedling growth)
Procedure, shortened: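 Germinated wheat seeds on agar (5 per well) were sprayed with compound formulated in acetone/DMF and diluted in water with 1000 ppm emulsifier. Each unit was then infested with 10–20 larvae. Efficacy % was scored after 7 days as seedling growth relative to an untreated, uninfested control (100% = normal growth).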

[7] = tested on: cattle tick larvae (Rhipicephalus microplus), strain Parkhurst, resistant against synthetic pyrethroids; test: Rhipicephalus (Boophilus) microplus in-vitro contact test, larval cattle tick; details: 5 μg/cm^2 (=500 g/ha), after 48 hours
Procedure, shortened: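 After drying, 20-50 larvae were held per tube at 27° C., 85% relative humidity for 48 h, and efficacy was scored as % dead or moribund.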

[8] = tested on: green peach aphid (Myzus persicae); test: Myzus persicae spray test (MYZUPE); details: 120 h, 100 g/ha, after 5 days
Procedure, shortened: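 Chinese cabbage leaf disks infested with all instars of Myzus persicae were sprayed with compound formulated in acetone/dimethylformamide and diluted in water with 1000 ppm alkylarylpolyglycol ether emulsifier. Percent mortality was scored after 5 days, 100% meaning all aphids killed.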

[9] = tested on: adult animals Blattella germanica strain PAULINIA; test: Blattella germanica test (BLTTGE surface treatment & contact assay); details: 24 hours after contact, read-out: efficacy (mortality); for mortality at 4 mg/m2: surface concentration 4 mg/m^2, 30 min exposure; for mortality at 20 mg/m2: surface concentration 20 mg/m^2, 30 min exposure
Method: Blattella germanica Test (BLTTGE Surface Treatment & Contact Assay)
as §1
In order to produce a sufficient, active ingredient containing solution it is necessary to solve the test compound in the solvent-mix (acetone at 2 mg/ml/RME 2000 ppm). This solution is pipetted onto a glazed tile and after evaporation of the acetone, adult animals of the species Blattella germanica strain PAULINIA are placed onto the dried surface. The exposure time is 30 minutes.
Mortality in percent (%) is determined 24 hours after contact of the insects to the treated surface. 100% mortality means that all tested insects are dead, whereas 0% means that no insect died.

[10] = tested on: adult cat fleas (Ctenocephalides felis); test: Ctenocephalides felis in-vitro contact test, adult cat flea; details: 5 μg/cm^2 (=500 g/ha), after 48 hours
Procedure, shortened: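 Acetone solutions of compound were coated onto inner walls of glass tubes (900 ppm giving 5 μg/cm^2) and dried; 5-10 adult C. felis were then held 48 h at room temperature. Efficacy = % fleas dead or moribund, judged by inability to escape a 45-50° C heating plate within 5 min.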

[11] = tested on: fall armyworm larvae (Spodoptera frugiperda); test: whole plant or invertebrate; details: 168 h; for Emax at 20 g/ha: SPODFR, 20 g ai/ha, 7 dat (Table 3), read-out: % Efficacy
Procedure, shortened: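 Maize leaf sections sprayed with compound in acetone/DMF with alkylarylpolyglycol ether emulsifier diluted in water, then infested with fall armyworm larvae once dry. Mortality (%) scored after 7 days; 100% = all caterpillars killed.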

[12] = tested on: adult brown dog ticks (Rhipicephalus sanguineus); test: Rhipicephalus sanguineus in-vitro contact test, adult brown dog ticks; details: 48 h, read-out: efficacy (ticks dead or moribund)
Procedure, shortened: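 Compound in acetone was coated onto inner walls of glass tubes by rotation (2 h, 30 rpm); 900 ppm gives 5 μg/cm^2. After drying, 5-10 adult ticks were enclosed per tube at room temperature; after 48 h, heat-escape test at 45-50° C scored dead/moribund ticks as % efficacy.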

[13] = tested on: green peach aphid (Myzus persicae); test: whole plant or invertebrate; details: 120 h, MYZUPE oral, 0.16 ppm, 5 dat (Table 3), read-out: % Efficacy
Method: Solvent: 100 parts by weight acetone
To produce a suitable preparation of active compound, 1 part by weight of active compound is mixed with the stated amount of solvent, and the concentrate is diluted with water to the desired concentration.
50 μL compound solution is filled in microtiter plates and 150 μL IPL41 insect medium (33%+15% sugar) is added to obtain a total volume of 200 μL per well. Afterwards the plates are sealed with parafilm through which a mixed population of the green peach aphid (Myzus persicae) can suck on the compound preparation.
After 5 days mortality in % is determined. 100% means all aphids have been killed and 0% means none of the aphids have been killed.
Myzus persicae—Oral Test (MYZUPE Oral)

C[C@H](NC(=O)c1cc(Cl)cc(OC(F)(F)F)c1)c1ncnn1-c1cc(C(N)=O)ncn1 [I-49]
mortality at 4 mg/m2 [1]: 80 to 100%
mortality at 20 mg/m2 [1]: 80 to 100%
mortality at 4 mg/m2 [2]: 80 to 100%
mortality at 20 mg/m2 [2]: 80 to 100%
mortality at 100 g/ha [3]: 100%
mortality at 500 g/ha [3]: 100%
mortality at 4 mg/m2 [4]: 80 to 100%
mortality at 20 mg/m2 [4]: 80 to 100%
mortality at 500 g/ha [5]: 100%
pest or weed control at 32 µg/disc, 100 g/ha [6]: 100%
efficacy (larvae dead or moribund) [7]: 100%
mortality at 100 g/ha [8]: 100%
mortality at 4 mg/m2 [9]: 80 to 100%
mortality at 20 mg/m2 [9]: 80 to 100%
efficacy (fleas dead or moribund) [10]: 100%
mortality at 100 g/ha [11]: 100%
pest or weed control at 5 µg/cm2, 500 g/ha [12]: 80%

C[C@H](NC(=O)c1cc(Cl)cc(S(C)(=O)=O)c1)c1ncnn1-c1ccncn1 [I-146 Known from WO 2019197468, reference compound]
Emax at 0.16 ppm [13]: 0%
Emax at 20 g/ha [11]: 33%

CNC(=O)c1cc(-n2ncnc2[C@H](C)NC(=O)c2cc(Br)cc(OC(F)(F)F)c2)ncn1 [I-74]
mortality at 4 mg/m2 [1]: 80 to 100%
mortality at 20 mg/m2 [1]: 80 to 100%
mortality at 4 mg/m2 [2]: 80 to 100%
mortality at 20 mg/m2 [2]: 80 to 100%
mortality at 500 g/ha [3]: 100%
mortality at 4 mg/m2 [4]: 80 to 100%
mortality at 20 mg/m2 [4]: 80 to 100%
mortality at 500 g/ha [5]: 100%
pest or weed control at 32 µg/disc, 100 g/ha [6]: 80%
efficacy (larvae dead or moribund) [7]: 100%
mortality at 100 g/ha [8]: 90%
mortality at 4 mg/m2 [9]: 80 to 100%
mortality at 20 mg/m2 [9]: 80 to 100%
efficacy (fleas dead or moribund) [10]: 100%
mortality at 100 g/ha [11]: 100%
pest or weed control at 5 µg/cm2, 500 g/ha [12]: 100%

C[C@H](NC(=O)c1cc(Cl)cc(S(C)(=O)=O)c1)c1ncnn1-c1cc(C#N)ccn1 [I-148 Known from WO 2019197468, reference compound]
Emax at 0.16 ppm [13]: 0%
Emax at 20 g/ha [11]: 33%

CNC(=O)c1cc(-n2ncnc2[C@H](C)NC(=O)c2cc(Cl)cc(OC(F)(F)F)c2)ncn1 [I-73]
mortality at 4 mg/m2 [1]: 80 to 100%
mortality at 20 mg/m2 [1]: 80 to 100%
mortality at 4 mg/m2 [2]: 80 to 100%
mortality at 20 mg/m2 [2]: 80 to 100%
mortality at 500 g/ha [3]: 100%
mortality at 4 mg/m2 [4]: 80 to 100%
mortality at 20 mg/m2 [4]: 80 to 100%
mortality at 500 g/ha [5]: 100%
pest or weed control at 32 µg/disc, 100 g/ha [6]: 100%
efficacy (larvae dead or moribund) [7]: 100%
mortality at 100 g/ha [8]: 70%
mortality at 4 mg/m2 [9]: 80 to 100%
mortality at 20 mg/m2 [9]: 80 to 100%
efficacy (fleas dead or moribund) [10]: 100%
mortality at 100 g/ha [11]: 100%
pest or weed control at 5 µg/cm2, 500 g/ha [12]: 100%
